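Cells were grown in 96-well plates and exposed to each compound for 48 hours at five concentrations; endpoints were interpolated linearly between bracketing concentrations, or set to the highest concentration if not reached. TGI denotes the concentration required for complete inhibition of growth.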
Columns and labels:
Assay in all cases: NCI-60 cell line screen, 48 h
SR leukemia = tested on: SR leukemia
OVCAR-4 ovarian = tested on: OVCAR-4 ovarian
SK-MEL-2 melanoma = tested on: SK-MEL-2 melanoma
DMS 114 small cell lung = tested on: DMS 114 small cell lung
OVCAR-8 ovarian = tested on: OVCAR-8 ovarian
M19-MEL melanoma = tested on: M19-MEL melanoma
SK-OV-3 ovarian = tested on: SK-OV-3 ovarian
KM20L2 colon = tested on: KM20L2 colon
MOLT-4 leukemia = tested on: MOLT-4 leukemia
OVCAR-3 ovarian = tested on: OVCAR-3 ovarian
EKVX NSCLC = tested on: EKVX NSCLC
HCT-116 colon = tested on: HCT-116 colon
SF-295 CNS = tested on: SF-295 CNS
HT29 colon = tested on: HT29 colon
K-562 leukemia = tested on: K-562 leukemia
SF-539 CNS = tested on: SF-539 CNS
SNB-78 CNS = tested on: SNB-78 CNS
UACC-257 melanoma = tested on: UACC-257 melanoma
LXFL 529 NSCLC = tested on: LXFL 529 NSCLC
SW-620 colon = tested on: SW-620 colon

Measured: TGI

O=C1OCc2cccc3c2-c2c1cccc2C(=O)OC3
not listed: UACC-257 melanoma | LXFL 529 NSCLC | SW-620 colon
> 100 µM: all other assays above

c1ccc(-c2nnc(-c3nsc4ccccc34)o2)cc1
not listed: SR leukemia | SK-OV-3 ovarian | SF-295 CNS
> 100 µM: all other assays above
